Data published in US11945807B2, “Splicing modulator antibody-drug conjugates and methods of use” (EISAI R&D MANAGEMENT CO., LTD., priority 2018, dated 2024).
Where two headings read alike, the source gives them in different places.

Tests used:
[1] = tested on: TAOK1 (neojunction transcript); test: In vivo PD RT-qPCR in NCI-N87 tumors, TAOK1; parameters: species or system CB17-SCID mice; details: single IV 10 mg/kg; N=4; FIG. 24
[2] = tested on: FBXW5 (mature mRNA transcript); test: In vivo PD RT-qPCR in NCI-N87 tumors, FBXW5; parameters: species or system CB17-SCID mice; details: single IV 10 mg/kg; N=4; FIG. 24
MCF7 cells = test: Cell viability CellTiter-Glo, MCF7 (HER2-negative); format: cell-based; details: Homo sapiens, unconjugated payload of the ADC
NCIH1650.1 = test: Payload cellular potency CTGlo-ATS 72 h, NCIH1650.1; format: cell-based; details: cell line #1, 72 h, corresponding free payload
Caco-2 cells = test: Caco-2 permeability of ADC payload; format: in vitro ADME; details: corresponding free payload
[3] = Caco-2 permeability of ADC payload; format: in vitro ADME; details: human; for Papp B→A at 2 h, 10 NM: basolateral to apical, read-out: Permeability Mean Caco-2 B-A Perm (10e−G cm/s)
THP1.1 = test: Payload cell potency and lethality CTGlo 72 h, THP1.1; format: cell-based; details: for CTGlo-AT S Mean Min-Response % 72 h THP1.1: unconjugated payload
PC3 cells = test: Cell viability CellTiter-Glo, PC3 (EPHA2-expressing); format: cell-based; details: for GI50: Homo sapiens, PC-3, free payload of the ADC; for Payload Rmin (%): free payload of the ADC
HCC1954 cells = test: Cell viability CellTiter-Glo, HCC1954; details: Homo sapiens, HCC1954, read-out: Payload GI50 (nM)
SF3b complex = biological target: T1, SF3b complex (Homo sapiens, UniProt O75533+Q7RTV0); test: SF3B1 binding / scintillation proximity assay (SPA)
T1 construct: The beads were suspended and added to the prepared nuclear extracts; endogenous in cells; host or cells: nuclear extracts

NCIH1568.1 = test: Payload cellular potency CTGlo-ATS 72 h, NCIH1568.1; format: cell-based; details: cell line #2, 72 h, corresponding free payload
[4] = Chemical stability of ADC payload, pH 5.5 buffer; format: physicochemical; details: for half-life at 20 μM: McIlvaine (citrate-phosphate) buffer, unconjugated payload, Citrate-Phosphate buffer pH 5.5, 37° C., read-out: Stability Mean Stability t1/2 pH5.5 (converted)
Source text: (Eppendorf ThermoMixer). […] Time 0 was set to 100.

N87 cells = test: Cell viability CellTiter-Glo, N87; format: cell-based, human; details: unconjugated payload of the ADC; for GI50: Homo sapiens
MOLP8 cells = test: Cell viability CellTiter-Glo, MOLP8 (CD138-expressing); format: cell-based
Ad2.2 pre-mRNA = test: In vitro splicing (IVS) RT-qPCR, HeLa nuclear extract, Ad2.2; format: biochemical; details: biochemical splicing assay; corresponding free payload; read-out: qPCR-IVS-ATS GMean IC50 (nM) Ad2.2 HELA.2
Procedure: To evaluate payload activity in a cell-free system, an in vitro splicing assay was performed. The payloads were incubated with nuclear extracts and pre-mRNA substrate minigenes.
HeLa nuclear extract preparation: HeLa S3 cell pellets were resuspended in hypotonic buffer (10 mM HEPES pH 7.9, 1.5 mM MgCl2, 10 mM KCl, 0.2 mM PMSF, 0.5 mM DTT) and the suspension was brought up to a total of 5 packed cell volume (PCV). After centrifugation, the supernatant was discarded, and the cells were brought up to 3 PCV with hypotonic buffer and incubated on ice for 10 min. Cells were lysed using a dounce homogenizer and then centrifuged. […]. The nuclei were gently mixed for 30 min before centrifuging. The supernatant (nuclear extract) was then dialyzed into storage buffer (20 mM HEPES pH 7.9, 100 mM KCl, 0.2 mM EDTA, 20% glycerol, 0.2 mM PMSF, 0.5 mM DTT). Protein concentration was determined using NanoDrop 8000 UV-Vis spectrophotometer (ThermoFisher Scientific).
IVS: All Ad2-derived sequences (Pellizzoni et al. (1998) Cell 95(5):615-24) were cloned into pcDNA3.1(+) vector (Promega) using 5′ EcoRI and 3′ Xbal restriction sites. The plasmids were linearized using Xbal and used as DNA templates in in vitro transcription reactions. The FtzΔi intron-less plasmid (Luo and Reed (1999) 96(26):14937-42) was linearized using EcoRI. All RNAs were in vitro transcribed and then purified using MEGAScript T7 (Invitrogen) and MegaClear (Invitrogen) kits, respectively. For splicing reactions using Ad2 variant pre-mRNAs, 1 μL reactions were prepared using 8 μg nuclear extracts prepared from HeLa S3, 2 ng pre-mRNA, 0.2 ng FTZΔi, and varying concentrations of compounds or DMSO. After a 15 min pre-incubation at 30° C., 1 μL splicing activation buffer (0.5 mM ATP, 20 mM creatine phosphate, 1.6 mM MgCl2) was added, and the reactions were incubated for 90 min at 30° C. The reactions were then quenched with 13 μL DMSO, and 25 nL was used for RT-qPCR. RT-qPCR reactions were prepared using TaqMan RNA-to-CT 1-step kit (Life Technologies), RNA from splicing reactions, Ad2 (forward: […]; reverse: […]; probe: […]) and Ftz (forward: […]; reverse: […]; probe: […]) mRNA primer-probe sets. Prism 7 (Graphpad) was used for non-linear regression curve fitting of the formed spliced product and normalized to the control (DMSO) sample. […] In the presence of payload, a decrease in the amount of spliced product was observed.

[5] = Caco-2, unconjugated payload, apical to basolateral, 2 hours, read-out: Permeability Mean Caco-2 A-B Perm (10e−6 cm/s)
[6] = Caco-2, unconjugated payload, 2 hours
[7] = unconjugated payload, [3H]-pladienolide B probe displacement, read-out: SPA-AT S GMean IC50 (nM) SF381 (WT) HELA.2

## CC[C@H](O)[C@@H](C)C1OC1C[C@@](C)(O)/C=C/C=C(\C)[C@H]1OC(=O)C[C@H](O)CC[C@@](C)(OC)[C@@H](OC(=O)N2CCN(CCN3C(=O)C=CC3=O)CC2)/C=C/[C@@H]1C (stereo in doubt) [ADL14-D1, (2S,3S,6S,7R,10R,E)-10-hydroxy-2-((R,2E,4E)-6-hydroxy-7-((2S,3S)-3-((2R,3S)-3-hydroxypentan-2-yl)oxiran-2-yl)-6-methylhepta-2,4-dien-2-yl)-7-methoxy-3,7-dimethyl-12-oxooxacyclododec-4-en-6-yl 4-(2-(2,5-dioxo-2,5-dihydro-1H-pyrrol-1-yl)ethyl)piperazine-1-carboxylate]
[1]
  change of TAOK1 neojunction transcript in tumor: did not exhibit statistically significant changes
[2]
  change of FBXW5 mature mRNA transcript in tumor: did not exhibit statistically significant changes

## CC[C@H](O)[C@@H](C)C1OC1C[C@@](C)(O)/C=C/C=C(\C)[C@H]1OC(=O)C[C@H](O)CC[C@@](C)(OC)[C@@H](OC(=O)N2CCNCC2)/C=C/[C@@H]1C (stereo in doubt) [D1, (2S,3S,6S,7R,10R,E)-10-hydroxy-2-((R,2E,4E)-6-hydroxy-7-((2S,3S)-3-((2R,3S)-3-hydroxypentan-2-yl)oxiran-2-yl)-6-methylhepta-2,4-dien-2-yl)-7-methoxy-3,7-dimethyl-12-oxooxacyclododec-4-en-6-yl piperazine-1-carboxylate]
MCF7 cells
  GI50: 17 nM
NCIH1650.1
  CTGlo-ATS GMean LD50 (nM) 72 h NCIH1650.1: >10000.00 nM
NCIH1650.1; read-out: CTGlo-ATS GMean GI50 (nM) 72 h NCIH1650.1
  GI50: 12.1 nM
Caco-2 cells; A-B
  Perm. Mean Caco 2 A-B Perm (10e−6 cm/s): 0.14 10e−6 cm/s
Caco-2 cells; B-A
  Perm. Mean Caco 2 B-A Perm (10e−6 cm/s): 2.05 10e−6 cm/s
[3]; [5]
  Papp A→B at 2 h, 10 NM: 0.14 ×10⁻⁶ cm/s
[3]; [6]
  Papp B→A at 2 h, 10 NM: 2.05 ×10⁻⁶ cm/s
THP1.1; read-out: CTGlo-ATS GMean GI50 (nM) 72 h THP1.1, cell line #3, 72 h, corresponding free payload
  GI50: 11.1 nM
THP1.1
  CTGlo-AT S Mean Min-Response % 72 h THP1.1: −100.615%
PC3 cells
  GI50: 13.3 nM
  Payload Rmin (%): −71.987%
HCC1954 cells
  GI50: 1.85 nM
SF3b complex; target binding, corresponding free payload, read-out: SPA-ATS GMean IC50 (nM) SF3B1 (WT) HELA.2
  IC50: 6.08 nM
SF3b complex; [7]
  IC50: 6.08 nM
NCIH1568.1
  CTGlo-ATS GMean LD50 (nM) 72 h NCIH1568.1: 65.737 nM
NCIH1568.1; read-out: CTGlo-ATS GMean GI50 (nM) 72 h NCIH1568.1
  GI50: 7.36 nM
[4]
  half-life at 20 μM: 94.8 h
N87 cells
  GI50: 7.04 nM
  Payload Rmin (%): −40.041%

## CC[C@H](O)[C@@H](C)[C@H]1O[C@@H]1C[C@@](C)(O)/C=C/C=C(\C)[C@H]1OC(=O)C[C@H](O)CC[C@@](C)(OC(C)=O)[C@@H](OC(=O)N2CCN(C(=O)OCc3ccc(NC(=O)[C@H](CCCNC(N)=O)NC(=O)[C@@H](NC(=O)CCCCCN4C(=O)C=CC4=O)C(C)C)cc3)CC2)/C=C/[C@@H]1C [ADL1-D4]
[1]
  change of TAOK1 neojunction transcript in tumor: significant increases
[2]
  change of FBXW5 mature mRNA transcript in tumor: significant depletion

## CC(=O)N1CCC(n2nnc3c(F)cc(/C=C(\C)[C@H]4OC(=O)C[C@H](O)CC[C@H](C)[C@@H](OC(=O)N5CC[N+](C)(Cc6ccc(NC(=O)[C@H](C)NC(=O)[C@@H](NC(=O)CCCCCN7C(=O)C=CC7=O)C(C)C)cc6)CC5)/C=C/[C@@H]4C)cc32)CC1 [ADL5-D15, 4-((((2S,3S,6R,7S,10R,E)-2-((E)-1-(1-(1-acetylpiperidin-4-yl)-4-fluoro-1H-benzo[d][1,2,3]triazol-6-yl)prop-1-en-2-yl)-10-hydroxy-3,7-dimethyl-12-oxooxacyclododec-4-en-6-yl)oxy)carbonyl)-1-(4-((S)-2-((S)-2-(6-(2,5-dioxo-2,5-dihydro-1H-pyrrol-1-yl)hexanamido)-3-methylbutanamido)propanamido)benzyl)-1-methylpiperazin-1-ium]
[1]
  change of TAOK1 neojunction transcript in tumor: an increase in TAOK1, but did not reach statistical significance
[2]
  change of FBXW5 mature mRNA transcript in tumor: significant depletion

## CC[C@H](O)[C@@H](C)[C@H]1O[C@@H]1C[C@@](C)(O)/C=C/C=C(\C)[C@H]1OC(=O)C[C@H](O)CC[C@@](C)(OC)[C@@H](OC(=O)N2CCN(C)CC2)/C=C/[C@@H]1C [D2, (2S,3S,6S,7R,10R,E)-10-hydroxy-2-((R,2E,4E)-6-hydroxy-7-((2R,3R)-3-((2R,3S)-3-hydroxypentan-2-yl)oxiran-2-yl)-6-methylhepta-2,4-dien-2-yl)-7-methoxy-3,7-dimethyl-12-oxooxacyclododec-4-en-6-yl 4-methylpiperazine-1-carboxylate]
MCF7 cells
  GI50: 2.85 nM
[3]; Caco-2, A-B, corresponding payload (Table 26), read-out: Permeability Caco-2 A-B (10e−6 cm/s)
  Papp A→B at 2 h, 10 NM: 0.6 ×10⁻⁶ cm/s
[3]; [5]
  Papp A→B at 2 h, 10 NM: 0.624 ×10⁻⁶ cm/s
[3]; [6]
  Papp B→A at 2 h, 10 NM: 14.2 ×10⁻⁶ cm/s
THP1.1
  CTGlo-AT S Mean Min-Response % 72 h THP1.1: −100.218%
MOLP8 cells; Homo sapiens, MOLP-8, unconjugated payload of the ADC in the row, read-out: Payload GI50
  GI50: 0.316 nM
MOLP8 cells; unconjugated payload of the ADC
  Payload Rmin (%): −100.198%
PC3 cells
  GI50: 2.39 nM
  Payload Rmin (%): −68.803%
HCC1954 cells
  GI50: 0.6 nM
SF3b complex; [7]
  IC50: 15.5 nM
[4]
  half-life at 20 μM: 96 h
[4]; pH 5.5, 37 C., corresponding payload
  pH 5.5 Stability (t1/2, 37 C.): 4
N87 cells
  GI50: 0.749 nM
  Payload Rmin (%): −72.706%

## CC[C@H](O)[C@@H](C)[C@H]1O[C@@H]1C[C@@](C)(O)/C=C/C=C(\C)[C@H]1OC(=O)C[C@H](O)CC[C@@](C)(OC(C)=O)[C@@H](OC(=O)N2CCN(CCN)CC2)/C=C/[C@@H]1C [D3, (2S,3S,6S,7R,10R,E)-7-acetoxy-10-hydroxy-2-((R,2E,4E)-6-hydroxy-7-((2R,3R)-3-((2R,3S)-3-hydroxypentan-2-yl)oxiran-2-yl)-6-methylhepta-2,4-dien-2-yl)-3,7-dimethyl-12-oxooxacyclododec-4-en-6-yl 4-(2-aminoethyl)piperazine-1-carboxylate]
Ad2.2 pre-mRNA
  IC50: 10.9 nM

## CC[C@H](O)[C@@H](C)[C@H]1O[C@@H]1C[C@@](C)(O)/C=C/C=C(\C)[C@H]1OC(=O)C[C@H](O)CC[C@@](C)(OC(C)=O)[C@@H](OC(=O)N2C[C@@H]3C[C@H]2CN3)/C=C/[C@@H]1C [D5, (2S,3S,6S,7R,10R,E)-7-acetoxy-10-hydroxy-2-((R,2E,4E)-6-hydroxy-7-((2R,3R)-3-((2R,3S)-3-hydroxypentan-2-yl)oxiran-2-yl)-6-methylhepta-2,4-dien-2-yl)-3,7-dimethyl-12-oxooxacyclododec-4-en-6-yl (1S,4S)-2,5-diazabicyclo[2.2.1]heptane-2-carboxylate]
Ad2.2 pre-mRNA
  IC50: 23.9 nM
